Results reported in patent US20230312529A1, “PYRIMIDINE SMALL-MOLECULE COMPOUND AND APPLICATION THEREOF” (WENZHOU MEDICAL UNIVERSITY, priority 2021, published 2023).
“And” between values parts separate entries of the source, which are not always exact repeats. Equal values may be shown once.

Columns and labels:
Assay in all cases: Caliper Mobility Shift kinase inhibition test
Type in all cases: biochemical
ABL1 = ABL1 (Homo sapiens (Human), UniProt P00519); conditions: 100 nM; for inhibition at 0.1 µM: read-out: inhibitory rate on ABL1
Protocol: (§1) The method adopted in the test was Caliper Mobility Shift Assay, which was a detection platform based on the mobility detection technology of microfluidic chip technology. […] Collected data was tested on Caliper to yield that inhibition ratio to kinase activity=(max−conversion)/(max−min)×100. “max” was DMSO control without adding compound, and “min” was low control. When IC50 was determined, each sample was provided with 10 dilutions, each with 2 multiple holes, and repeated for 3 times.

PDGFRβ = PDGFRβ (Homo sapiens (Human), UniProt P09619); conditions: for inhibitory rate on PDGFR-β / inhibition at 0.1 µM: 100 nM; for inhibition at 0.1 µM: read-out: inhibitory rate on PDGFR-β; for IC50: read-out: IC50 PDGFR-β
Protocol: (§2) The method adopted in the test was Caliper Mobility Shift Assay, which was a detection platform based on the mobility detection technology of microfluidic chip technology. Test steps: 1.25× kinase reaction buffer (62.5 mmol/L HEPES, pH 7.5; 0.001875% Brij-35; 12.5 mmol/L MgCl2; 2.5 mM DTT) and kinase reaction stop solution (100 mmol/L HEPES, pH 7.5; 0.015% Brij-35; 0.2% Coating Reagent #3) were configured. […] Collected data was tested on Caliper to yield that inhibition ratio to kinase activity=(max−conversion)/(max−min)×100. “max” was DMSO control without adding compound, and “min” was low control. When IC50 was determined, each sample was provided with 10 dilutions, each with 2 multiple holes, and repeated for 3 times.
(§3) According to the above-mentioned method for measuring kinase inhibitory activity, the inhibitory activity of the active compounds on other multiple kinases was measured to characterize the kinase selectivity of active inhibitors.

FLT3 = FLT3 (Homo sapiens (Human), UniProt P36888); conditions: 100 nM; for inhibition at 0.1 µM: read-out: inhibitory rate on FLT3
Protocol: as §2

FGFR2 = FGFR2 (Homo sapiens (Human), UniProt P21802)
Protocol: as §2, §3

JAK1 = JAK1 (Homo sapiens (Human), UniProt P23458)
Protocol: as §2, §3

IKK β = IKK β (Homo sapiens (Human), UniProt O14920)
Protocol: as §2

ALK = ALK (Homo sapiens (Human), UniProt Q9UM73)
Protocol: as §2

PDGFRα = PDGFRα (Homo sapiens (Human), UniProt P16234)
Protocol: as §1

Sequence of ABL1 (P00519 whole entry): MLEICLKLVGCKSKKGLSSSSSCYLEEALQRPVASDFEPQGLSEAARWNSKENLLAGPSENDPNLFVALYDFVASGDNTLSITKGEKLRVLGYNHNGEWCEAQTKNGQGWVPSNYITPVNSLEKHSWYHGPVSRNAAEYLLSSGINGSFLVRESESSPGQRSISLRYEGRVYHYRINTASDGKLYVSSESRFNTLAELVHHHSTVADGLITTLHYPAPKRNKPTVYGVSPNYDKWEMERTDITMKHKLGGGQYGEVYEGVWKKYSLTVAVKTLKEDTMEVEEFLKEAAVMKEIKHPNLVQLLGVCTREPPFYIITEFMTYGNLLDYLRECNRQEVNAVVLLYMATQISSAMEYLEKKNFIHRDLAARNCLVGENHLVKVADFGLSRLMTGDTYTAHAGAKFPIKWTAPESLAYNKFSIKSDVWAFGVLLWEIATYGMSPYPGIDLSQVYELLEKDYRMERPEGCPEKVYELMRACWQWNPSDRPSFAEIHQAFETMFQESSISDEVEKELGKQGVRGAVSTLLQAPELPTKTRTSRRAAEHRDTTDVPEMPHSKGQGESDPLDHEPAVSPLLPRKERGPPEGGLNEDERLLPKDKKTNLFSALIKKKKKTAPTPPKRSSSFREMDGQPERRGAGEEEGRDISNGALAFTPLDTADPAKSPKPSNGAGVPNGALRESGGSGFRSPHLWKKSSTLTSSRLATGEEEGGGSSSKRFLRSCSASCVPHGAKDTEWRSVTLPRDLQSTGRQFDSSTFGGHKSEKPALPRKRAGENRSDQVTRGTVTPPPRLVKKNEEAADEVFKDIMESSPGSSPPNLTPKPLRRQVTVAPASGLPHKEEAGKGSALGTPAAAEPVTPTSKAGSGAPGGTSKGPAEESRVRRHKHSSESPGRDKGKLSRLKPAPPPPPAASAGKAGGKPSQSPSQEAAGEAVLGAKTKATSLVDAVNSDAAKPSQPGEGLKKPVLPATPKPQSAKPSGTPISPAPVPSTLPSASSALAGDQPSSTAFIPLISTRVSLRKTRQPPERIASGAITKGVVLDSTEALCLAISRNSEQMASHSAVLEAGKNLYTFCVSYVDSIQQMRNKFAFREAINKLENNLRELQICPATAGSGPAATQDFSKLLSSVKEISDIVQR
Sequence of FLT3 (P36888 27-993): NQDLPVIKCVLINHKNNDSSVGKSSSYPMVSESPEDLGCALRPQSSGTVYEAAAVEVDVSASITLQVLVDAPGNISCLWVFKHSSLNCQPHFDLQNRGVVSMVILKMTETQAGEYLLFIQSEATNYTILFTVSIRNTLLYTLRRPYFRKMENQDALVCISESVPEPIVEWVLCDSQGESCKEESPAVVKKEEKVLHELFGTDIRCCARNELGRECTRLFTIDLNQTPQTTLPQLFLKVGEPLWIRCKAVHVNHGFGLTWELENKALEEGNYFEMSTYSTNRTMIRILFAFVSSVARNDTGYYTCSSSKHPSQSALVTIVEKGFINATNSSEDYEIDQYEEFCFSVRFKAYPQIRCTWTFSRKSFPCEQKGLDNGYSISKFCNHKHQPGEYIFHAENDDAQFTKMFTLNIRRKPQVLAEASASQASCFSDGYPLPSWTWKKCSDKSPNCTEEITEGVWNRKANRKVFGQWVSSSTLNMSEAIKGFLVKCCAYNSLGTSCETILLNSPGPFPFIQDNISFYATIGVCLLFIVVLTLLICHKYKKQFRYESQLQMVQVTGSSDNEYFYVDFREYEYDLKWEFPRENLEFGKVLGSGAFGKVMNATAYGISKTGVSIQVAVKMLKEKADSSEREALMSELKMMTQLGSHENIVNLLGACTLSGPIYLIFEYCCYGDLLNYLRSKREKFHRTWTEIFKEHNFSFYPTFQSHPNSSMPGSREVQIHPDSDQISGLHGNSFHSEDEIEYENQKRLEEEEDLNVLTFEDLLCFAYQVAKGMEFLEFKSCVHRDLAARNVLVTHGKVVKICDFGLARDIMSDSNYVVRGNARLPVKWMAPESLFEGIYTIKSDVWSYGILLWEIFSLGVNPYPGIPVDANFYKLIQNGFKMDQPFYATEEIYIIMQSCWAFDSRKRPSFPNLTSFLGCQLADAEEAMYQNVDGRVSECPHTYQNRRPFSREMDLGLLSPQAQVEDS
Sequence of PDGFRα (P16234 24-1089): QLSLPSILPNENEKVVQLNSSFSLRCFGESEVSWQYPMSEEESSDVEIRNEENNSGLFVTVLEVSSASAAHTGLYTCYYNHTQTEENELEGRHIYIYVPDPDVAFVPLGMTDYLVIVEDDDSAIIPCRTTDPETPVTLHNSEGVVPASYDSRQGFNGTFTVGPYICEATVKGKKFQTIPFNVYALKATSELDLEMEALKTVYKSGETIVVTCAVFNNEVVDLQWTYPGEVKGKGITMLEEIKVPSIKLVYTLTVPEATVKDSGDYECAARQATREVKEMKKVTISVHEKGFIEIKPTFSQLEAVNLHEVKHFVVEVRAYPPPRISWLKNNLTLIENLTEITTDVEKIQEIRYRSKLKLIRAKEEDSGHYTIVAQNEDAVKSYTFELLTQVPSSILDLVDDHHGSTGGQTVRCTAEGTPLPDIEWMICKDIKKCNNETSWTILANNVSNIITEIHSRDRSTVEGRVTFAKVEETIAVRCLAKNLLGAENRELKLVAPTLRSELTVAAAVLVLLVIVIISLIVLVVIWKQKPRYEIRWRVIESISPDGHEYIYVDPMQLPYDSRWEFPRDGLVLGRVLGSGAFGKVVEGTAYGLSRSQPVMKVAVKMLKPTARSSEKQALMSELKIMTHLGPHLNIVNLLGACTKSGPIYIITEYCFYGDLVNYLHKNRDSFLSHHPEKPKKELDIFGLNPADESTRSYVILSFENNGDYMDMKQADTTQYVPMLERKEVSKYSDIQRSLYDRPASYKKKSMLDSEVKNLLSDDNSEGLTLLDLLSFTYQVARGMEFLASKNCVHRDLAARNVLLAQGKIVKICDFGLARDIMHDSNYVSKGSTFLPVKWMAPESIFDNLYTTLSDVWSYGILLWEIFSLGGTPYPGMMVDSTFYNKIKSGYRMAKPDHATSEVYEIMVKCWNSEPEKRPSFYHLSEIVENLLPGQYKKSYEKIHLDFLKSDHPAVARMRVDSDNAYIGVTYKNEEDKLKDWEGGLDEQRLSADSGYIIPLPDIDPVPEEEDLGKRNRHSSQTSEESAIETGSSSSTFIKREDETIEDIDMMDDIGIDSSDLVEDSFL
Sequence of PDGFRβ (P09619 33-1106): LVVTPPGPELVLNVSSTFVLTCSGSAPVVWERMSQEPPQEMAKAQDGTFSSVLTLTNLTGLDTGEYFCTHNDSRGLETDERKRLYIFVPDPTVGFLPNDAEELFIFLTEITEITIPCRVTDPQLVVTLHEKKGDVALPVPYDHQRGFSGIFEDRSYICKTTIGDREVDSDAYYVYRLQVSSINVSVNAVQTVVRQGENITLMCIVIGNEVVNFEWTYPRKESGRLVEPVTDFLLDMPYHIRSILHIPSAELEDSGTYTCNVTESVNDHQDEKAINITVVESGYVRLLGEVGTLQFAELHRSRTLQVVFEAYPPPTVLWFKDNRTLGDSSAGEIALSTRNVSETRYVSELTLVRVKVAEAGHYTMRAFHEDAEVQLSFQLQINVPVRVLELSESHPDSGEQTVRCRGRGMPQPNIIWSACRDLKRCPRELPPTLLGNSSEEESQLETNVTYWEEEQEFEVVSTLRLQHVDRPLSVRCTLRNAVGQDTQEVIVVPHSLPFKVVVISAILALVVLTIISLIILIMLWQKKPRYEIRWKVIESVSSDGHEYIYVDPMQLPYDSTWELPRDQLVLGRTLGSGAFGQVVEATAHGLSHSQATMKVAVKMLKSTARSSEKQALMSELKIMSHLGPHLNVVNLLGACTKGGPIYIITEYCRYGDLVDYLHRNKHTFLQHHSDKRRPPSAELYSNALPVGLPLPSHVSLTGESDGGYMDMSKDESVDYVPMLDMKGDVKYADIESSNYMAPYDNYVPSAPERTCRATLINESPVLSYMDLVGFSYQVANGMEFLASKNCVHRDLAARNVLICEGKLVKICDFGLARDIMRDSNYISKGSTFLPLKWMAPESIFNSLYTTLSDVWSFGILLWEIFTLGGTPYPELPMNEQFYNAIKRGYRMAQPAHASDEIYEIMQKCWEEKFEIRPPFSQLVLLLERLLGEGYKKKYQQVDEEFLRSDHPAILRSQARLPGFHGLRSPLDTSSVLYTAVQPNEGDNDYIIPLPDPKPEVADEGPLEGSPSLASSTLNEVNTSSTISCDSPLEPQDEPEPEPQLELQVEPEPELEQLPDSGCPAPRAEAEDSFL
Sequence of FGFR2 (P21802 22-821, species assumed): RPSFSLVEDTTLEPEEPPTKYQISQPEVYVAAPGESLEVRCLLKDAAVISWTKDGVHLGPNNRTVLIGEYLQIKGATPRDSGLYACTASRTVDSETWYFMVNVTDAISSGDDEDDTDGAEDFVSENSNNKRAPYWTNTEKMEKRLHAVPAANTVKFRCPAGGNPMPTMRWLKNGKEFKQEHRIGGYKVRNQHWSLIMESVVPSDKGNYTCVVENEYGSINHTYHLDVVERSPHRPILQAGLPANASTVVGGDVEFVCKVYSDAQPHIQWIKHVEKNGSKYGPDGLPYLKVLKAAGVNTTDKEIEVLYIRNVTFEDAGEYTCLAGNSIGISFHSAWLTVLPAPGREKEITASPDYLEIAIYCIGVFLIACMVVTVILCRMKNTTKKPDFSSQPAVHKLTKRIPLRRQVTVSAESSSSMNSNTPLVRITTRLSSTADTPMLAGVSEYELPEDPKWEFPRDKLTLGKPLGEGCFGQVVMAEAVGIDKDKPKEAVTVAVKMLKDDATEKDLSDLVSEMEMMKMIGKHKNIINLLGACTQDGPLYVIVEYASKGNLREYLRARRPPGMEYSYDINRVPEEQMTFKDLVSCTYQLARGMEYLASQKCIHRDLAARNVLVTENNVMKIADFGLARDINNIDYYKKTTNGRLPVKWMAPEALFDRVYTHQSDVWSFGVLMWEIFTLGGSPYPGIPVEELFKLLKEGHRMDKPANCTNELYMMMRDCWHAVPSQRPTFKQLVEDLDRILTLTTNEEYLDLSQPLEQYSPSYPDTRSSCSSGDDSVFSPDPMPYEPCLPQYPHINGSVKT

Row | inhibitory rate on ABL1 (ABL1) [%] | inhibitory rate on PDGFR-β (PDGFRβ) [%] | inhibitory rate on FLT3 (FLT3) [%] | inhibition at 0.1 µM (ABL1) [%] | inhibition at 0.1 µM (PDGFRβ) [%] | inhibition at 0.1 µM (FLT3) [%] | Compound | also measured
1 | 78.8 | 90.3 | 60.9 | – | – | – | Cc1cnc(Nc2ccc(N3CCN(C)CC3)cc2)nc1Nc1cccc2[nH]ccc12 [Compound 5b] | –
2 | – | – | – | 59.6 | 70.3 | 78.4 | Cc1cnc(Nc2ccc(N3CCS(=O)(=O)CC3)cc2)nc1Nc1ccc2cn[nH]c2c1 [Compound 6d, 4-(4-((4-((1H-indazol-6-yl)amino)-5-methylpyrimidine-2-yl)amino)phenyl)thiomorpholine 1,1-dioxide] | IC50 (FGFR2): 117 nM; IC50 (JAK1): 99 nM; IC50 (PDGFRβ): 70.3 nM and 39 nM; IC50 (IKK β): 619 nM; IC50 (ALK): 186 nM
3 | – | – | – | 90.4 | 96.4 | 88.7 | Cc1cnc(Nc2ccc(N3CCN(C)CC3)cc2)nc1Nc1ccc2cnn(C)c2c1 [Compound 5k, 5-methyl-N^4-(1-methyl-1H-indazol-6-yl)-N^2-(4-(4-methylpiperazine-1-yl)phenyl)pyrimidine-2,4-diamine] | inhibition at 0.1 µM (PDGFRα; 100 nM, read-out: inhibitory rate on PDGFR-α): 91.1%; IC50 (PDGFRα; read-out: IC50 PDGFR-α): 19 nM; IC50 (PDGFRβ): 7.3 nM
4 | – | – | – | 81 | 78.4 | 85.6 | Cc1cnc(Nc2ccc(C(=O)N3CCN(C)CC3)cc2)nc1Nc1ccc2cn[nH]c2c1 [Compound 6m, (4-((4-((1H-indazol-6-yl)amino)-5-methylpyrimidine-2-yl)amino)phenyl) (4-methylpiperazine-1-yl)methanone] | –
5 | – | – | – | 89.2 | 90.4 | 85.7 | Cc1cnc(Nc2ccc(N3CCN(C)CC3)cc2)nc1Nc1ccc2c(c1)CCCC2 [Compound 5g, 5-methyl-N^2-(4-(4-methylpiperazine-1-yl)phenyl)-N^4-(5,6,7,8-tetrahydronaphthalene-2-yl)-pyrimidine-2,4-diamine] | –
6 | – | – | – | 80.2 | 88.9 | 87.1 | Cc1cnc(Nc2ccc(N3CCN(C)CC3)cc2)nc1Nc1ccc2c(c1)CCC2 [Compound 5h, N^4-(2,3-dihydro-1H-indene-5-yl)-5-methyl-N^2-(4-(4-methylpiperazine-1-yl)phenyl)pyrimidine-2,4-diamine] | –
7 | – | – | – | 47.5 | 76.4 | 58.4 | COc1cc(N2CCC(N3CCN(C)CC3)CC2)ccc1Nc1ncc(C)c(Nc2ccc3cn[nH]c3c2)n1 [Compound 6k, N^4-(1H-indazol-6-yl)-N^2-(2-methoxy-4-(4-(4-methylpiperazine-1-yl)piperidine-1-yl)phenyl)-5-methylpyrimidine-2,4-diamine] | –
8 | – | – | – | 58.9 | 79.2 | 65.4 | Cc1cnc(Nc2ccc(N3CCN(C)CC3)cc2)nc1Nc1ccc2c(cnn2C)c1 [Compound 5c, 5-methyl-N^4-(1-methyl-1H-indazol-5-yl)-N^2-(4-(4-methylpiperazine-1-yl)phenyl)pyrimidine-2,4-diamine] | –
9 | 80.9 | 84.1 | 80.4 | – | – | – | Cc1cnc(Nc2ccc(N3CCN(C)CC3)cc2)nc1Nc1ccc2[nH]ncc2c1 [Compound 5d] | –
10 | 58.9 | 78.6 | 60.3 | – | – | – | Cc1cnc(Nc2ccc(N3CCN(C)CC3)cc2)nc1Nc1ccc2[nH]ccc2c1 [Compound 5a] | inhibitory rate on PDGFR-α (PDGFRα; 100 nM): 57.3%
11 | 90.2 | 91.0 | 90.5 | – | – | – | Cc1cnc(Nc2ccc(N3CCN(C)CC3)cc2)nc1Nc1ccc2nccnc2c1 [Compound 5f, 5-methyl-N^2-(4-(4-methylpiperazine-1-yl)phenyl)-N^4-(quinoxaline-7-yl)-pyrimidine-2,4-diamine] | –
12 | – | – | – | 85.2 | 98 | 93.4 | Cc1cnc(Nc2ccc(N3CCN(C)CC3)cc2)nc1Nc1ccc2c(C)n[nH]c2c1 [Compound 5i, 5-methyl-N^4-(3-methyl-1H-indazol-6-yl)-N^2-(4-(4-methylpiperazine-1-yl)phenyl)pyrimidine-2,4-diamine] | IC50 (PDGFRβ): 7.9 nM
13 | – | – | – | 91.2 | 68.7 | 87.3 | Cc1cnc(Nc2ccc(N3CCNCC3)cc2)nc1Nc1ccc2cn[nH]c2c1 [Compound 6b, N^4-(1H-indazol-6-yl)-5-methyl-N^2-(4-(piperazine-1-yl)phenyl) py rimidine-2,4-diamine] | IC50 (PDGFRβ): 68.7 nM
14 | 65.5 | – | 69.8 | – | 74.1 | – | Cc1cnc(Nc2ccc(N3CCN(C)CC3)cc2)nc1Nc1ccc2nccnc2c1 [Compound 5e, 5-methyl-N^2-(4-(4-methylpiperazine-1-yl)phenyl)-N^4-(benzopyrazine-6-yl)-pyrimidine-2,4-diamine] | –
15 | 71.6 | 71.1 | 74.3 | – | – | – | Cc1cnc(Nc2ccc(N3CCN(C)CC3)cc2)nc1Nc1ccc2cn(CCNC(=O)OC(C)(C)C)nc2c1 [Compound 5j, Tert-butyl (2-(6-((5-methyl-2-((4-(4-methylpiperazine-1-yl)phenyl)amino)-pyrimidine-4-yl)amino)-2H-indazol-2-yl)ethyl) carbamate] | –

The remaining lines, values behind:

Row | Compound | inhibitory rate on ABL1 (ABL1) [%] | inhibitory rate on PDGFR-β (PDGFRβ) [%] | inhibitory rate on FLT3 (FLT3) [%] | inhibition at 0.1 µM (ABL1) [%] | inhibition at 0.1 µM (PDGFRβ) [%] | inhibition at 0.1 µM (FLT3) [%] | also measured
16 | Cc1cnc(Nc2ccc(N3CCN(C)CC3)cc2)nc1Nc1ccc2cn[nH]c2c1 [Compound 3d, N^4-(1H-indazol-6-yl)-5-methyl-N^2-(4-(4-methylpiperazine-1-yl)phenyl)pyrimidine-2,4-diamine] | – | – | – | 95.2 | 99.6 | 90.5 | –
17 | CN1CCN(c2ccc(Nc3ncc(C(F)(F)F)c(Nc4ccc5cn[nH]c5c4)n3)cc2)CC1 [Compound 3c, N^4-(1H-indazol-6-yl)-N^2-(4-(4-methylpiperazine-1-yl)phenyl)-5-(trifluoromethyl)pyrimidine-2,4-diamine] | – | – | – | 84.2 | 81 | 78.6 | –
18 | CN1CCN(c2ccc(Nc3ncc(F)c(Nc4ccc5cn[nH]c5c4)n3)cc2)CC1 [Compound 3a, 5-fluoro-N^4-(1H-indazol-6-yl)-N^2-(4-(4-methylpiperazine-1-yl)phenyl)pyrimidine-2,4-diamine] | – | – | – | 90.4 | 94.4 | 87.5 | –
19 | Cc1cc2c(Nc3ccc4cn[nH]c4c3)nc(Nc3ccc(N4CCN(C)CC4)cc3)nc2s1 [Compound 3i] | 23.6 | 30.7 | 42.6 | – | – | – | inhibitory rate on PDGFR-α (PDGFRα; 100 nM): 6.6%
20 | CCOC(=O)c1cnc(Nc2ccc(N3CCN(C)CC3)cc2)nc1Nc1ccc2cn[nH]c2c1 [Compound 3f, Ethyl-4-((1H-indazol-6-yl)amino)-2-((4-(4-methylpiperazine-1-yl)phenyl)amino)pyrimidine-5-carboxylate] | – | – | – | 4.3 | 3.5 | 34.8 | –
21 | CN1CCN(c2ccc(Nc3ncc(Cl)c(Nc4ccc5cn[nH]c5c4)n3)cc2)CC1 [Compound 3b, 5-chloro-N^4-(1H-indazol-6-yl)-N^2-(4-(4-methylpiperazine-1-yl)phenyl)pyrimidine-2,4-diamine] | – | – | – | 95.1 | 95.8 | 90.2 | –
22 | COc1cnc(Nc2ccc(N3CCN(C)CC3)cc2)nc1Nc1ccc2cn[nH]c2c1 [Compound 3e, N^4-(1H-indazol-6-yl)-5-methoxy-N^2-(4-(4-methylpiperazine-1-yl)phenyl)pyrimidine-2,4-diamine] | – | – | – | 54.3 | 55 | 51.2 | –
23 | Cc1cnc(Nc2ccc(N3CCOCC3)cc2)nc1Nc1ccc2cn[nH]c2c1 [Compound 6a, N^4-(1H-indazol-6-yl)-5-methyl-N^2-(4-morphinophenyl) pyrimidine-2,4-diamine] | 98.2 | 93.8 | 87.2 | – | – | – | IC50 (PDGFRβ): 4.2 nM
24 | CN1CCN(c2ccc(Nc3nc(Nc4ccc5cn[nH]c5c4)cc(C(F)(F)F)n3)cc2)CC1 [Compound 3g, N^4-(1H-indazol-6-yl)-N^2-(4-(4-methylpiperazine-1-yl)phenyl)-6-(trifluoromethyl)pyrimidine-2,4-diamine] | – | – | – | 6.9 | 7.2 | 14.6 | –
25 | Cc1cc(Nc2ccc3cn[nH]c3c2)nc(Nc2ccc(N3CCN(C)CC3)cc2)n1 [Compound 3h] | 5.9 | 21.2 | 13.8 | – | – | – | –
